# Test results as given in patent publication US20250241926A1, “HETEROCYCLIC COMPOUNDS FOR USE IN THE TREATMENT OF CANCER” (ARTIOS PHARMA LIMITED, priority 2021, published 2025).
# Biological target: T1, Human Polθ polymerase domain (aa1820-2590) (Homo sapiens, UniProt O75417)
# T1 construct: Human Polθ polymerase domain (aa1820-2590) was expressed in E. Coli; made in house; host or cells: E. coli
# T1 sequence (O75417 1820-2590): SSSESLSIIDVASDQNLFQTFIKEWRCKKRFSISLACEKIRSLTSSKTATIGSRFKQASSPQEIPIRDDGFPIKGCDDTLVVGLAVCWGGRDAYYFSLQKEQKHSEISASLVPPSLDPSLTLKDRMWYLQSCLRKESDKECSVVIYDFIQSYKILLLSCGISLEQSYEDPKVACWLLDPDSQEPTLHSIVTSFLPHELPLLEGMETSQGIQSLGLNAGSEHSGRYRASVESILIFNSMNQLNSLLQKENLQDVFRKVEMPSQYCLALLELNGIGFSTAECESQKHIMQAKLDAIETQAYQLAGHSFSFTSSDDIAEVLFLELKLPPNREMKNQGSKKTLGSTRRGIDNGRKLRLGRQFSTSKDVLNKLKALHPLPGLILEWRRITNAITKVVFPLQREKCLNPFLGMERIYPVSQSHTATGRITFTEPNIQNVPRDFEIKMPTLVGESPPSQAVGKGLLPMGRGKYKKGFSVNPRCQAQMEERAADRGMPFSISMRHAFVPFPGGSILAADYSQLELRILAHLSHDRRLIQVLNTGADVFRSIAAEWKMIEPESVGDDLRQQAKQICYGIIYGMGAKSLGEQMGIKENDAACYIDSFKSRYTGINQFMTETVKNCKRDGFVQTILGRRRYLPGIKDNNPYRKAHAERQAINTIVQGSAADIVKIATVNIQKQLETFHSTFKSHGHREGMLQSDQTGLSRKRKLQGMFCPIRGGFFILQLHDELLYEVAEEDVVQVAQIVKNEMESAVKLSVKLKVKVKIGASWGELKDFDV
# Test: Polθ Polymerase Domain Kinact/Kl Assay (PicoGreen)
# Assay type: biochemical
# Conditions: covalent inhibitors, kobs vs [I] fit, 0.8 nM Polθ, 100 nM DNA substrate, read-out: Kinact/KI
# Procedure: Polθ Polymerase Domain Kinact/Kl Assay
# A PicoGreen assay was used to measure the Kinact and Kl values of covalent compounds that inhibit the activity of Polθ in vitro.
# Human Polθ polymerase domain (aa1820-2590) was expressed in E. Coli, purified, aliquoted and stored at −80° C. until required. Polθ substrate was generated from a 1.2:1 mix of DNA II Short to DNA II Long to give a final concentration of […] substrate in annealing buffer (20 mM Tris pH 7.5, 50 mM NaCl). The substrate was heated in 50 mL aliquots to 95° C. in a heating block for 5 min before the heating block switched off, the reaction left to cool to rt and stored at −20° C. until required.
# Assay measurements were performed with 1× buffer comprising 25 mM Tris pH 7.5, 12.5 mM NaCl, […], 5% (v/v) glycerol, 0.01% v/v Triton x-100, 0.1 mg/ml BSA, 1 mM DTT. Test compounds were prepared by dilution in 100% DMSO to give a 12 μM intermediate stock of each (100× final top concentration). 100 nL of 23× 1:1.5-fold serial dilutions and a DMSO only control were dispensed using the Tecan dispenser into Greiner 384 well black low volume plates (product code 784076). DMSO concentration was maintained at 1% of the final assay volume by back filling with DMSO.
# 2× Working stock of substrate (200 nM of DNA substrate and […] dNTPs) and enzyme (1.4 nM Polθ) were made up in assay buffer. 5 μL/well of both enzyme and substrate 2× solutions were dispensed using a Tempest dispenser (Formulatrix) into assay plates that had been pre-dispensed with compound to give a final assay concentration of 100 nM DNA substrate, […] dNTPs and 0.8 nM Polθ. To stop the reaction, […] of a solution containing 25 mM Tris-HCl pH 7.5 and 20 mM EDTA was added at […] (t=0, 2.5, 5, 7.5, 10, 12.5, 15, 20, 25, 30, 35, 40, 45, 50, 55 and 60 min) using the Tempest's time delay function. The plates were covered during the time course to prevent evaporation. After completing the assay, 5 μL of detection reagent (25 mM Tris-HCl pH 7.5 and 2.5% (v/v) PicoGreen) was dispensed into the wells using a Tempest liquid handler (Formulatrix) and plates subsequently read on the CLARIOstar Plus (BMG Labtech) using the default optical settings for fluorescein and the auto gain/focus settings.
# All data analysis was carried out using GraphPad Prism V. 8 (GraphPad Software Inc, San Diego, CA) Time course data for each inhibitor concentration was fitted to equation 1 to determine kobs values.^1 Any time points where the control (DMSO alone) reaction was no longer linear were excluded from the analysis.
# A secondary plot of kobs vs [I] is used to determine the Kinact and Kl parameters (for a 2-step covalent inhibitor) by fitting to equation 2.1
# [formula] • 1) Evaluation of Enzyme Inhibitors in Drug Discovery (Ch9), R. A Copeland, Wiley, 2nd Edition 2013.
row,kinact/KI [M⁻¹ s⁻¹],SMILES
1,1.2e+06,"C=CC(=O)N1CC2(CN(CCN3CC[C@H](Nc4nc(C)cc(C(F)(F)F)c4C#N)C(=O)N(C)c4ccccc43)CCO2)C1 [Example 21, (S)-2-((6-(2-(2-Acryloyl-5-oxa-2,8-diazaspiro[3.5]nonan-8-yl)ethyl)-1-meth-yl-2-oxo-1,2,3,4,5,6-hexa-hydrobenzo[b][1,4]diazocin-3-yl)amino)-6-methyl-4-(trifluorometh-yl)nicotinonitrile]"
2,500000,"C=CC(=O)N1CC2(CN(CCN3CC[C@H](Nc4nc(C)cc(C(F)(F)F)c4C#N)C(=O)N(C)c4ccccc43)C2)C1 [Example 22, (S)-2-((6-(2-(6-Acryloyl-2,6-diazaspiro[3.3]heptan-2-yl)ethyl)-1-methyl-2-oxo-1,2,3,4,5,6-hexa-hydrobenzo[b][1,4]diazocin-3-yl)amino)-6-methyl-4-(trifluorometh-yl)nicotinonitrile]"
3,940000,"C=CC(=O)N1CC2(CN(CCN3CC[C@H](Nc4nc(C)cc(C(F)(F)F)c4C#N)C(=O)N(C)c4cccc(F)c43)CCN2)C1 [Example 23, (S)-2-((6-(2-(2-Acryloyl-2,5,8-triazaspiro[3.5]nonan-8-yl)ethyl)-7-fluoro-1-methyl-2-oxo-1,2,3,4,5,6-hexahydrobenzo[b][1,4]diazocin-3-yl)amino)-6-methyl-4-(trifluoromethyl)nicotinonitrile]"
4,630000,"Cc1cc(C(F)(F)F)c(C#N)c(N[C@H]2CCN(CCN3CC4(CN(C(=O)/C=C/CN(C)C)C4)OC3=O)c3c(F)cccc3N(C)C2=O)n1 [Example 24, (S,E)-2-((6-(2-(2-(4-(Dimethylamino)but-2-enoyl)-6-oxo-5-oxa-2,7-diazaspiro[3.4]octan-7-yl)ethyl)-7-fluoro-1-methyl-2-oxo-1,2,3,4,5,6-hexahydrobenzo[b][1,4]diazocin-3-yl)amino)-6-methyl-4-(trifluoromethyl)nicotinonitrile]"
5,1.6e+06,"C#CCN1CCN(CCN2CC[C@H](Nc3nc(C)cc(C(F)(F)F)c3C#N)C(=O)N(C)c3cccc(F)c32)CC12CN(C(=O)C=C)C2 [Example 25, (S)-2-((6-(2-(2-Acryloyl-5-(prop-2-yn-1-yl)-2,5,8-triazaspiro[3.5]nonan-8-yl)ethyl)-7-fluoro-1-methyl-2-oxo-1,2,3,4,5,6-hexahydrobenzo[b][1,4]diazocin-3-yl)amino)-6-methyl-4-(trifluoromethyl)nicotinonitrile]"
6,2.1e+06,"C#CCN1CCN(CCN2CC[C@H](Nc3nc(C)cc(C(F)(F)F)c3C#N)C(=O)N(C)c3cccc(F)c32)CC12CN(C(=O)/C=C/CN(C)C)C2 [Example 26, (S,E)-2-((6-(2-(2-(4-(Dimethylamino)but-2-enoyl)-5-(prop-2-yn-1-yl)-2,5,8-triazaspiro[3.5]nonan-8-yl)ethyl)-7-fluoro-1-methyl-2-oxo-1,2,3,4,5,6-hexahydrobenzo[b][1,4]diazocin-3-yl)amino)-6-methyl-4-(trifluoromethyl)nicotinonitrile]"
7,940000,"C#CCOC(=O)N1CCN(CCN2CC[C@H](Nc3nc(C)cc(C(F)(F)F)c3C#N)C(=O)N(C)c3cccc(F)c32)CC12CN(C(=O)/C=C/CN(C)C)C2 [Example 27, (S,E)-Prop-2-yn-1-yl 8-(2-(4-((3-cyano-6-methyl-4-(trifluoromethyl)pyridin-2-yl)amino)-10-fluoro-6-methyl-5-oxo-3,4,5,6-tetrahydrobenzo[b][1,4]diazocin-1(2H)-yl)ethyl)-2-(4-(dimethylamino)but-2-enoyl)-2,5,8-triazaspiro[3.5]nonane-5-carboxylate]"
8,1.2e+06,"Cc1cc(C(F)(F)F)c(C#N)c(N[C@H]2CCN(CCN(C)C(=O)C3CN(C(=O)/C=C/CN(C)C)C3)c3c(F)cccc3N(C)C2=O)n1 [Example 29, (S,E)-N-(2-(4-((3-Cyano-6-methyl-4-(trifluoromethyl)pyridin-2-yl)amino)-10-fluoro-6-methyl-5-oxo-3,4,5,6-tetrahydrobenzo[b][1,4]diazocin-1(2H)-yl)ethyl)-1-(4-(dimethylamino)but-2-enoyl)-N-methylazetidine-3-carboxamide]"
9,690000,"Cc1cc(C(F)(F)F)c(C#N)c(N[C@H]2CCN(CCN(C)C(=O)[C@@H]3CCN(C(=O)/C=C/CN(C)C)C3)c3ccccc3N(C)C2=O)n1 [Example 30, (R)—N-(2-((S)-4-((3-Cyano-6-methyl-4-(trifluoromethyl)pyridin-2-yl)amino)-6-methyl-5-oxo-3,4,5,6-tetrahydrobenzo[b][1,4]diazocin-1(2H)-yl)ethyl)-1-((E)-4-(dimethylamino)but-2-enoyl)-N-methylpyrrolidine-3-carboxamide]"
10,920000,"Cc1cc(C(F)(F)F)c(C#N)c(N[C@H]2CCN(CCN(C)C(=O)C3CN(C(=O)/C=C/CN(C)C)C3)c3ccccc3N(C)C2=O)n1 [Example 31, (S,E)-N-(2-(4-((3-Cyano-6-methyl-4-(trifluoromethyl)pyridin-2-yl)amino)-6-methyl-5-oxo-3,4,5,6-tetrahydrobenzo[b][1,4]diazocin-1(2H)-yl)ethyl)-1-(4-(dimethylamino)but-2-enoyl)-N-methylazetidine-3-carboxamide]"
11,340000,"C=CC(=O)N1CCN(CC(O)CN2CC[C@H](Nc3nc(C)cc(C(F)(F)F)c3C#N)C(=O)N(C)c3ccccc32)CC1 (stereo partly drawn) [Example 35, 2-(((3S)-6-(3-(4-Acryloylpiperazin-1-yl)-2-hydroxypropyl)-1-methyl-2-oxo-1,2,3,4,5,6-hexahydrobenzo[b][1,4]diazocin-3-yl)amino)-6-methyl-4-(trifluoromethyl)nicotinonitrile]"
12,360000,"C=CC(=O)N1CC2(CN(CC(O)CN3CC[C@H](Nc4nc(C)cc(C(F)(F)F)c4C#N)C(=O)N(C)c4ccccc43)C2)C1 (stereo partly drawn) [Example 36, 2-(((3S)-6-(3-(6-Acryloyl-2,6-diazaspiro[3.3]heptan-2-yl)-2-hydroxypropyl)-1-methyl-2-oxo-1,2,3,4,5,6-hexahydrobenzo[b][1,4]diazocin-3-yl)amino)-6-methyl-4-(trifluoromethyl)nicotinonitrile]"
13,340000,"C=CC(=O)N1CCN(CCCN2CC[C@H](Nc3nc(C)cc(C(F)(F)F)c3C#N)C(=O)N(C)c3cccc(F)c32)CC1 [Example 37, (S)-2-((6-(3-(4-Acryloylpiperazin-1-yl)propyl)-7-fluoro-1-methyl-2-oxo-1,2,3,4,5,6-hexahydrobenzo[b][1,4]diazocin-3-yl)amino)-6-methyl-4-(trifluoromethyl)nicotinonitrile]"
14,480000,"C=CC(=O)N1CCN(CCCN2CC[C@H](Nc3nc(C)cc(C(F)(F)F)c3C#N)C(=O)N(C)c3ccc(F)cc32)CC1 [Example 38, (S)-2-((6-(3-(4-Acryloylpiperazin-1-yl)propyl)-8-fluoro-1-methyl-2-oxo-1,2,3,4,5,6-hexahydrobenzo[b][1,4]diazocin-3-yl)amino)-6-methyl-4-(trifluoromethyl)nicotinonitrile]"
